The record followed here is article PMC10493609 (Frontiers in Immunology, 2023).

As a reminder, the pKd is −log10 of the Kd, conventionally taken in molar units. High values mean a low Kd, low ones a high Kd.

The test concerns the target T1, Galectin-3 (Gal-3) (Homo sapiens, UniProt P17931).
T1 construct: gene LGALS3; Human recombinant Gal-3
Nature of the test: SPR kinetic analysis (Biacore). The format is binding. (Surface plasmon resonance follows binding to a sensor surface in real time, without labels.)

pKd: −log10 of the molar value.

T1 sequence (P17931 2-250): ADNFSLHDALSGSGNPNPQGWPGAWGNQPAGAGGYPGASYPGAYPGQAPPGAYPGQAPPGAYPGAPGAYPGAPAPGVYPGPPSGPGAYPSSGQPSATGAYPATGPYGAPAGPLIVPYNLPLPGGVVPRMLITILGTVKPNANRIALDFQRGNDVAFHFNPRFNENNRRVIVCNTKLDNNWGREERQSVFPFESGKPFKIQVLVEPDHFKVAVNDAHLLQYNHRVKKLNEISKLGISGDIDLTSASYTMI

GB1211 showed a negative-log Kd (pKd) of 7.63.
